Data from US6902741B1, “Laminates containing an active substance transdermal system” (Jenapharm GmbH & Co. KG, priority 1999, dated 2005).

Assay type: physicochemical
Excerpt: In this manner, by use of solid polymer inclusions, optimum active substance loadings can be attained in different polymers. The active substance concentrations in the polymer inclusions can be stabilized at a very high level so that only minimum amounts of additional solvent are needed. In cases where the solubility of the drug in the adhesive is the primary factor limiting skin permeation, the method of preparation described under B) must be chosen.
When such solid active substance inclusions are introduced into adhesive matrix solutions in dissolved form, the high solubility of the inclusion polymer in the matrix solvent used, for example ethyl acetate, ethanol etc, is important. Rapid dissolution of the amorphous active substance is attained to a level far above its saturation solubility in the pure solvent. For example, at room temperature ethyl acetate dissolves only about 3 wt. % of a gestagenic steroid. By use of a corresponding solid active substance solution, the solubility of the steroid in the solution of ethyl acetate and nonadhesive polymer was increased to nearly 15 wt. % and kept stable. It should be kept in mind in this respect that, based on the volatile solvent ethyl acetate which is to be driven off from the adhesive matrix that is to be dried, the solubility was increased to more than 30 wt. %. […]

## C#C[C@]1(O)C=C[C@H]2[C@@H]3CCC4=CC(=O)CC[C@@H]4[C@H]3CC[C@@]21CC [gestodene]
  solubility in ethyl acetate: 3%
